From the supplement of paper PMC8633005

Legend:
Assay in all cases: drug sensitivity score (DSS) (DSS (unitless, 0-50 scale)); higher = more sensitive (stronger viability inhibition); extreme values may be limits of the assay
Settings in all cases: 72 h; culture: 2D
FM-MEL-6 = tested on: FM-MEL-6
How it was run: (§1)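 Melanoma cell lines and patient-derived melanoma cultures at 1000–1500 cells per well were exposed in 2D, in 384-well plates, to a 527-compound oncology library at five concentrations spanning a 10,000-fold range for 72 h at 37 °C. CellTiter-Glo luminescence then measured viability. From dose-response curves fitted in the in-house Breeze software, a drug sensitivity score, a modified area-under-curve measure, was obtained.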

WM165 = tested on: WM165
How it was run: as §1

FM-MEL-3 = tested on: FM-MEL-3
How it was run: as §1

SK-MEL-28 = tested on: SK-MEL-28
How it was run: as §1

WM852 = tested on: WM852
How it was run: as §1

FM-MEL-2 = tested on: FM-MEL-2
How it was run: as §1

SK-MEL-2 = tested on: SK-MEL-2
How it was run: as §1

Bowes = tested on: Bowes
How it was run: as §1

SMILES | drug sensitivity score (FM-MEL-6) | drug sensitivity score (WM165) | drug sensitivity score (FM-MEL-3) | drug sensitivity score (SK-MEL-28) | drug sensitivity score (WM852) | drug sensitivity score (FM-MEL-2) | drug sensitivity score (SK-MEL-2) | drug sensitivity score (Bowes)
CC(C)(C)C[C@@H]1N[C@@H](C(=O)N[C@H]2CC[C@H](O)CC2)[C@H](c2cccc(Cl)c2F)[C@]12C(=O)Nc1cc(Cl)ccc12 | 0 | 15.9 | 16.6 | 0 | 0 | 3.1 | 0 | 2.2
CC(C)(C)c1cc(NC(=O)Nc2ccc(Oc3ccnc4[nH]c(=O)cnc34)cc2F)n(-c2ccccc2)n1 | 4.2 | 12.6 | 14.5 | 10.3 | 5.3 | 11.6 | 4.5 | 10.7
CC(C)Oc1ccc(C(=O)N[C@H](CNC(=O)CN(C)C)Cc2ccc(-c3cn4cccc([C@H](C)O)c4n3)cc2)cc1Cl | 4.7 | 13.7 | 6.3 | 5.3 | 9.5 | 7.3 | 13.5 | 19.2
CC[C@@H]1[C@H](F)C(=O)N[C@@H]1COc1nccc2cc(C(N)=O)c(OC)cc12 | 0 | 1.7 | 0.2 | 0 | 0.6 | 1.1 | 0 | 1.4
CN(C)CC#Cc1ccc(OCCCc2sc(N3CCc4cccc(C(=O)Nc5nc6ccccc6s5)c4C3)nc2C(=O)O)c(F)c1 | 0.7 | 0.2 | 16.7 | 0 | 0 | 4.6 | 0 | 0.5
CN1CCN(C2CCC(n3cc(-c4ccc(Oc5ccccc5)cc4)c4c(N)ncnc43)CC2)CC1 (centres undefined) | 7.2 | 9.4 | 7.7 | 8 | 9.2 | 6.6 | 5 | 10.1
CNC(=O)c1ccccc1Nc1nc(Nc2ccc3c(c2OC)CCC[C@H](N2CCN(CCO)CC2)C3)ncc1Cl | 7.6 | 9.2 | 8.6 | 7.9 | 7.7 | 7.2 | 4.5 | 8.2
CNS(=O)(=O)Nc1nccc(Cc2c(C)c3ccc(Oc4ncccn4)cc3oc2=O)c1F | 0.2 | 3.2 | 10.7 | 3.2 | 0 | 6.3 | 4.2 | 0.6
CONC(=O)c1ccccc1Nc1cc(Nc2cc(C)nn2C(C)C)ncc1Cl | 0 | 0.1 | 1.5 | 0 | 0 | 0.2 | 0 | 0.5
CO[C@@H](C)Cn1c(=O)n(C)c2cnc3ccc(-c4cncc(C(C)(C)O)c4)cc3c21 | 9.3 | 12 | 8.9 | 7.9 | 7.5 | 9.6 | 7.3 | 10.4
COc1ccc(Cn2ccc3ccc(C(=O)NO)cc32)cc1 | 0 | 1.6 | 0.3 | 0.2 | 0.6 | 0 | 0 | 0
COc1ccc2[nH]cc(/C=C3\C(=O)Nc4ccc(NC(=O)CCN5CCCCC5)cc43)c2c1 | 5 | 8.8 | 5.6 | 8.6 | 11.1 | 12.6 | 4.6 | 5.9
C[C@@]1(C(=O)Nc2ccc(F)nc2)CCCN1c1nc(Nc2cc(C3CC3)n[nH]2)c2cccn2n1 | 6.1 | 13.4 | 17.9 | 2 | 6.9 | 5 | 2.9 | 11.7
C[C@H]1C[C@@H](n2c(Nc3ccc(OC(F)(F)F)cc3)nc3cc(CCC(=O)O)ccc32)CC(C)(C)C1 | 0 | 0 | 4.5 | 0 | 0 | 0 | 0 | 0
C[C@H]1Oc2cc(cnc2N)-c2c(nn(C)c2C#N)CN(C)C(=O)c2ccc(F)cc21 | 0.6 | 0.2 | 2.4 | 0 | 0 | 0.9 | 0 | 0.1
Cc1c(-c2c(-c3ccc(F)o3)sc3ncnc(O[C@H](Cc4ccccc4OCc4ccnn4CC(F)(F)F)C(=O)O)c23)ccc(OCCN2CCN(C)CC2)c1Cl | 1.9 | 0 | 8.7 | 0 | 0 | 3.2 | 5.3 | 16.9
Cc1c(-c2ccc(N3CCc4cccc(C(=O)Nc5nc6ccccc6s5)c4C3)nc2C(=O)O)cnn1CC12CC3CC(CC(C3)C1)C2 | 0 | 0 | 6.7 | 0 | 0 | 1.5 | 0 | 0
Cc1ccc(C(=O)N(CCCN)[C@@H](c2oc3cc(Cl)ccc3c(=O)c2Cc2ccccc2)C(C)C)cc1 | 5.4 | 4.3 | 2.1 | 0.9 | 4.5 | 3.9 | 10 | 7.7
Cc1cccc(CC(=O)N2CCc3c2ccc(-c2cn(C)c4ncnc(N)c24)c3F)n1 | 0.1 | 0 | 0.9 | 0 | 3.7 | 0 | 0 | 0
Cc1ncc(Cl)cc1NCc1ccc(C(=O)N[C@@H](CC2CCCC2)C(=O)NC2CC2)s1 | 0 | 0 | 4.6 | 0 | 0 | 0 | 0 | 0
Cc1nn(C)c(COc2ccc(N3CCN(S(=O)(=O)N(C)C)CC3)cc2)c1-c1cccc2c(CCCOc3cccc4ccccc34)c(C(=O)O)n(CCN3CCOCC3)c12 | 7.8 | 6.4 | 7.8 | 5.6 | 5.4 | 8 | 4.6 | 6.7
Cn1cc(-c2ccc(F)c(C(F)(F)F)c2)nc1C1CCN(c2ncnc3[nH]ncc23)CC1 | 0 | 0 | 0 | 0 | 0 | 0 | 0 | 0

SMILES | drug sensitivity score (FM-MEL-6) | drug sensitivity score (WM165) | drug sensitivity score (FM-MEL-3) | drug sensitivity score (SK-MEL-28) | drug sensitivity score (WM852) | drug sensitivity score (FM-MEL-2) | drug sensitivity score (SK-MEL-2) | drug sensitivity score (Bowes)
Cn1cc(C2=Nc3cc(NC(=O)C(N)C4CCCCC4)cc4c3C2=CNNC4=O)cn1 (centres undefined) | 11.1 | 13.5 | 9.7 | 2.3 | 12.5 | 3.1 | 11 | 15.5
N#Cc1ccc(COC[C@H]2O[C@@H](n3c(NCc4ccc(Cl)c(Cl)c4)nc4c(N)ncnc43)[C@H](O)[C@@H]2O)cc1 | 1 | 5.1 | 6.8 | 5.5 | 0 | 4.2 | 0 | 2.7
NC[C@@](O)(c1ccc(Cl)cc1)c1ccc(-c2cn[nH]c2)cc1 | 4 | 2.1 | 0 | 1.7 | 0.6 | 1.4 | 0 | 0
O=C(NC[C@H](O)CN1CCc2ccccc2C1)c1cc(NC2COC2)ncn1 | 0.5 | 0 | 1.4 | 0.3 | 0 | 0.4 | 0 | 4.7
O=C(NCc1ccncc1)C12CC3CC(C1)CC(c1ccc(Cl)cc1)(C3)C2 | 1.2 | 6.1 | 7.6 | 2.6 | 4.3 | 2 | 2 | 5.2
O=C(O)c1ccc(CN2CCC(CN[C@@H]3C[C@H]3c3ccccc3)CC2)cc1 | 0 | 0 | 0 | 0 | 0 | 0 | 0 | 0
O=C1Cc2cc(C(=O)NC3C[C@H]4CC[C@@H](C3)N4S(=O)(=O)CC3CCN(CCCC(F)(F)F)CC3)c(Cl)cc2N1 (some centres undefined) | 0 | 0 | 0.7 | 0.2 | 0 | 0 | 0 | 0.3
COc1ccc(C[C@H](NC(=O)[C@H](C)NC(=O)CN2CCOCC2)C(=O)N[C@@H](Cc2ccccc2)C(=O)C2(C)CO2)cc1 (stereo in doubt) [ONX-0914] | 18.7 | 18.8 | 19.2 | 19.4 | 16.6 | 13.5 | 15.6 | 21.2
Cn1cc(C[C@@H](N)C(=O)O)c2ccccc21 [1-methyl-D-tryptophan] | 0.6 | 0 | 0 | 0 | 0 | 0 | 0 | 0
CC/C(=C(\c1ccc(O)cc1)c1ccc(OCCN(C)C)cc1)c1ccccc1 [4-hydroxytamoxifen] | 7.8 | 3.9 | 7.4 | 4.5 | 7.9 | 6.6 | 2.8 | 0
Nc1ncnc2c1nc(N)n2[C@@H]1O[C@H](CO)[C@@H](O)[C@H]1O [8-amino-adenosine] | 20.5 | 23.2 | 18.5 | 22.6 | 18.1 | 19.4 | 20.9 | 16.3
Nc1ncnc2c1nc(Cl)n2[C@@H]1O[C@H](CO)[C@@H](O)[C@H]1O [8-chloro-adenosine] | 7.5 | 14.8 | 3.3 | 5.1 | 4.6 | 0.9 | 7.7 | 5.2
COc1cc2c(cc1OCCCN1CCCC1)N=C(N)C21CCC1 [A-366] | 0.5 | 2.3 | 0.4 | 0.6 | 2.7 | 0 | 0 | 3.8
COc1ccc(S(=O)(=O)Nc2cccnc2Nc2ccc(O)cc2)cc1 [ABT-751] | 9.2 | 10.3 | 5.7 | 5.7 | 8.9 | 4 | 9 | 11
C[C@H](Nc1ncnc2[nH]cnc12)c1cc2ccc(F)cc2nc1-c1ccccn1 [AMG319] | 0.6 | 0 | 0 | 0 | 0 | 1.7 | 0 | 0
CC(C)[C@@H](CS(=O)(=O)C(C)C)N1C(=O)[C@@](C)(CC(=O)O)C[C@H](c2cccc(Cl)c2)[C@H]1c1ccc(Cl)cc1 [AMG-232] | 0 | 19 | 10.5 | 0 | 0 | 1.8 | 0 | 0
COCCOc1cnc2ccn([C@H](C)c3nnc4c(F)cc(-c5cnn(C)c5)cn34)c(=O)c2c1 [AMG-337] | 0 | 0 | 0 | 0 | 0 | 0 | 0 | 0
CC1CCC(n2c3cnccc3c3cnc(Nc4ccc5c(n4)CCN(C(=O)CO)C5)nc32)CC1 (centres undefined) [AMG-925] | 0.7 | 0 | 0 | 0 | 1.8 | 0.7 | 0 | 0
COCC1(CO)C(=O)C2CCN1CC2 (centres undefined) [APR-246] | 0 | 0 | 0 | 0 | 0 | 0 | 0 | 0
CC(C)[C@H](C(=O)Nc1ccc(C(=O)NO)cc1)c1ccccc1 [AR-42] | 11.6 | 14 | 11.8 | 10.3 | 3.9 | 9.8 | 12.7 | 6
Cc1sc2c(c1C)C(c1ccc(Cl)cc1)=N[C@@H](CC(=O)Nc1ccc(OCCOCCOCCOCCNc3cccc4c3C(=O)N(C3CCC(=O)NC3=O)C4=O)cc1)c1nnc(C)n1-2 (some centres undefined) [ARV-825] | 6.1 | 8.3 | 4.8 | 3.4 | 0 | 4.7 | 2.9 | 14.2
